Laboratory results from the CheMixHub viscosity set.

Test: xn = mol fraction of the nth substance listed

CC1COC(=O)O1 (stereo not drawn) + CS(C)=O
308.15 K, 101 kPa
Details | viscosity [mPa·s]
x2 = 0.0506 | 2.025
x2 = 0.1139 | 1.973
x2 = 0.2014 | 1.907
x2 = 0.2976 | 1.842
x2 = 0.382 | 1.794
x2 = 0.4759 | 1.746
x2 = 0.5376 | 1.719
x2 = 0.6343 | 1.684
x2 = 0.7176 | 1.659
x2 = 0.7898 | 1.645
x2 = 0.8643 | 1.64
x2 = 0.9376 | 1.639

CCOCCn1cc[n+](CCC#N)c1.O=S(=O)([N-]S(=O)(=O)C(F)(F)F)C(F)(F)F + CS(C)=O
Details | viscosity [mPa·s]
303.15 K, 101.33 kPa, x1 = 0.7207 | 40.65

COc1ccccc1 + CS(C)=O
viscosity [mPa·s], 101.3 kPa
Details | x2 = 0.1034 | x2 = 0.203 | x2 = 0.3049 | x2 = 0.4058 | x2 = 0.5049 | x2 = 0.6063 | x2 = 0.7044 | x2 = 0.8039 | x2 = 0.9011
298.15 K | 1.049 | 1.113 | 1.184 | 1.259 | 1.342 | 1.443 | 1.544 | 1.666 | 1.808
303.15 K | 0.968 | 1.024 | 1.104 | – | 1.229 | 1.32 | 1.408 | 1.517 | 1.641
308.15 K | 0.899 | 0.949 | 1.008 | 1.068 | 1.133 | 1.214 | 1.292 | 1.388 | 1.5

Cc1ccc(S(=O)(=O)O)cc1 + C[N+](C)(C)Cc1ccccc1.[Cl-]
Details | viscosity [mPa·s]
298 K, 101 kPa, x2 = 0.3 | 12850

c1ccc2ccccc2c1 + Cc1ccc(C)cc1
viscosity [mPa·s], 101.3 kPa
Details | x1 = 0.00437 | x1 = 0.00869 | x1 = 0.01249 | x1 = 0.01685 | x1 = 0.01712 | x1 = 0.01715 | x1 = 0.01815 | x1 = 0.02139 | x1 = 0.02569 | x1 = 0.02979
293.15 K | 0.6371 | 0.6386 | 0.6414 | – | – | – | 0.6438 | 0.6483 | 0.65 | 0.6534
298.15 K | 0.5968 | 0.5992 | 0.6012 | – | – | 0.6045 | – | 0.6076 | 0.6102 | 0.6125
313.15 K | 0.5333 | 0.5352 | 0.5363 | – | 0.5405 | – | – | 0.5431 | 0.5447 | 0.5469
323.15 K | 0.476 | 0.4777 | 0.4789 | 0.4818 | – | – | – | 0.4848 | 0.4862 | 0.4879
